The values below come from patent US9890147B2 (BAYER PHARMA AKTIENGESELLSCHAFT, priority 2012, dated 2018).

The subject of one assay is MOLM-13 cells. In words: Cell proliferation assay (alamarBlue), MOLM-13. It is filed as cell-based. The following applies: Homo sapiens, 96 hours incubation, inhibition of cell proliferation. The protocol: In accordance with the invention, the capability of the substances to inhibit cell proliferation was determined Cell viability was determined using the alamarBlue® reagent (Invitrogen) in a Victor X3 Multilabel Reader (Perkin Elmer). The excitation wavelength was 530 nm and the emission wavelenth […].
The MOLM-13 cells (DSMZ, ACC 554) were sown at a concentration of 4000 cells/well in 100 μl growth medium (RPMI1640, 10% FCS) on 96-well microtitre plates.
After an overnight incubation at 37° C., the fluorescence values (CI values) were determined. The plates were then treated with various substance dilutions (1E-5 M, 3E-6 M, 1E-6M, 3E-7 M, 1E-7 M, 3E-8 M, 1E-8 M) and incubated at 37° C. for 72 (MV4-11-, LOX-IMVI cells), 96 (MOLM-13-, B16F10-, MDA-MB-431-, Caov-3 cells), 120 (MOLP-8-, KMS-12-PE cells) or 168 (LAPC-4 cells) hours. The fluorescence values (CO values) were then determined. For the data analysis, the CI values were subtracted from the CO values and the results were compared between cells treated with different dilutions of the substance or with buffer solution only. These were used to calculate the IC 50 values (substance concentration required for 50% inhibition of cell proliferation).

For another assay, the target named is T1, BRD4 (BD1) (Homo sapiens, UniProt O60885).
T1 construct: with relatively long constructs also being possible, preferably amino acids 44-168; made in house; host or cells: E. coli
Description: Binding assay BRD4/acetylated peptide H4 (TR-FRET protein-protein interaction assay). The method in brief:
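His6-BRD4 BD1 (aa 67-152, E. coli), usually 10 nM, with biotinylated tetra-acetylated H4 peptide in HEPES pH 7.5 buffer; 11 compound concentrations 0.1 nM–20 μM in duplicate, 10 min preincubation, 1 h at 22 °C then ≥3 h at 4 °C. TR-FRET 665/620 ratio; IC50 by 4-parameter fit.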
On the technique in general: TR-FRET usually uses a lanthanide donor and a delayed reading to cut background.

Broadly, the IC50 is the concentration at which inhibition is half-maximal.

Regarding `CNC(=O)N1N=C(c2ccc(-c3ccc(Cl)cc3)cc2)c2cc(OC)c(OC)cc2CC1C` (racemic) [Example 63, (±)-1-(4′-chlorobiphenyl-4-yl)-7,8-dimethoxy-N,4-dimethyl-4,5-dihydro-3H-2,3-benzodiazepine-3-carboxamide], the IC50 with MOLM-13 cells amounted to 770 nM; on BRD4 (BD1), 170 nM.

For `CNC(=O)N1N=C(c2ccc(-c3ccc(C)cc3)cc2)c2cc(OC)c(OC)cc2CC1C` (racemic) [Example 64, (±)-7,8-dimethoxy-N,4-dimethyl-1-(4′-methylbiphenyl-4-yl)-4,5-dihydro-3H-2,3-benzodiazepine-3-carboxamide], the figures for the IC50 in the assay on MOLM-13 cells and on BRD4 (BD1) were 880 nM and 110 nM, respectively.

In the case of `CNC(=O)N1N=C(c2ccc(-c3ccc(OC)cc3)cc2)c2cc(OC)c(OC)cc2CC1C` (racemic) [Example 65, (±)-7,8-dimethoxy-1-(4′-methoxybiphenyl-4-yl)-N,4-dimethyl-4,5-dihydro-3H-2,3-benzodiazepine-3-carboxamide], the IC50 was 630 nM in the assay on MOLM-13 cells and 100 nM at BRD4 (BD1).

Consider `CNC(=O)N1N=C(c2ccc(-c3ccc(OC)nc3)cc2)c2cc(OC)c(OC)cc2CC1C` (racemic) [Example 66, (±)-7,8-dimethoxy-1-[4-(6-methoxypyridin-3-yl)phenyl]-N,4-dimethyl-4,5-dihydro-3H-2,3-benzodiazepine-3-carboxamide], for which the IC50 in the assay on MOLM-13 cells came out at 630 nM; at BRD4 (BD1) it was 70 nM.

For `CNC(=O)N1N=C(c2ccc(-c3ccc([S+](C)[O-])cc3)cc2)c2cc(OC)c(OC)cc2CC1C` (racemic) [Example 67, (±)-7,8-dimethoxy-N,4-dimethyl-1-[4′-(methylsulphinyl)biphenyl-4-yl]-4,5-dihydro-3H-2,3-benzodiazepine-3-carboxamide], the IC50 in the assay on MOLM-13 cells stood at 470 nM; at BRD4 (BD1), 40 nM.

On to `CNC(=O)N1N=C(c2ccc(-c3ccccc3NS(C)(=O)=O)cc2)c2cc(OC)c(OC)cc2CC1C` (racemic) [Example 68, (±)-7,8-dimethoxy-N,4-dimethyl-1-{2′-[(methylsulphonyl)amino]-biphenyl-4-yl}-4,5-dihydro-3H-2,3-benzodiazepine-3-carboxamide], for which the IC50 with MOLM-13 cells worked out at 1170 nM; on BRD4 (BD1) it was 70 nM.

As for `CNC(=O)N1N=C(c2ccc(-c3ccccc3S(C)(=O)=O)cc2)c2cc(OC)c(OC)cc2CC1C` (racemic) [Example 69, (±)-7,8-dimethoxy-N,4-dimethyl-1-[2′-(methylsulphonyl)biphenyl-4-yl]-4,5-dihydro-3H-2,3-benzodiazepine-3-carboxamide], the IC50 with MOLM-13 cells is 1210 nM; at BRD4 (BD1), 130 nM.

For `CNC(=O)N1N=C(c2ccc(-c3ccc(NS(C)(=O)=O)cc3)cc2)c2cc(OC)c(OC)cc2CC1C` (racemic) [Example 70, (±)-7,8-dimethoxy-N,4-dimethyl-1-{4′-[(methylsulphonyl)amino]biphenyl-4-yl}-4,5-dihydro-3H-2,3-benzodiazepine-3-carboxamide], the figures for the IC50 in the assay on MOLM-13 cells and at BRD4 (BD1) were 300 nM and 40 nM, respectively.

Consider `CNC(=O)N1N=C(c2ccc(-c3ccccc3C)cc2)c2cc(OC)c(OC)cc2CC1C` (racemic) [Example 72, (±)-7,8-dimethoxy-N,4-dimethyl-1-(2′-methylbiphenyl-4-yl)-4,5-dihydro-3H-2,3-benzodiazepine-3-carboxamide], for which the figures for the IC50 with MOLM-13 cells and on BRD4 (BD1) were 660 nM and 210 nM, respectively.

On to `CNC(=O)N1N=C(c2ccc(-c3cccc(S(C)(=O)=O)c3)cc2)c2cc(OC)c(OC)cc2CC1C` (racemic) [Example 73, (±)-7,8-dimcthoxy-N,4-dimethyl-1-[3′-(methylsulphonyl)biphenyl-4-yl]-4,5-dihydro-3H-2,3-benzodiazepine-3-carboxamide], for which the IC50 stood at 300 nM in the assay on MOLM-13 cells and 30 nM on BRD4 (BD1).

As for `CNC(=O)N1N=C(c2ccc(-c3cnc(OC)nc3)cc2)c2cc(OC)c(OC)cc2CC1C` (racemic) [Example 74, (±)-7,8-dimethoxy-1-[4-(2-methoxypyrimidin-5-yl)phenyl]-N,4-dimethyl-4,5-dihydro-3H-2,3-benzodiazepine-3-carboxamide], the results for the IC50 in the assay on MOLM-13 cells and at BRD4 (BD1) were 550 nM and 80 nM, respectively.

In the case of `CNC(=O)N1N=C(c2ccc(-c3ccc(F)c(C#N)c3)cc2)c2cc(OC)c(OC)cc2CC1C` (racemic) [Example 75, (±)-1-(3′-cyano-4′-fluorobiphenyl-4-yl)-7,8-dimethoxy-N,4-dimethyl-4,5-dihydro-3H-2,3-benzodiazepine-3-carboxamide], the figures for the IC50 in the assay on MOLM-13 cells and on BRD4 (BD1) were 660 nM and 130 nM, respectively.

For the compound `CNC(=O)N1N=C(c2ccc(-c3cccnc3OC)cc2)c2cc(OC)c(OC)cc2CC1C` (racemic) [Example 76, (±)-7,8-dimethoxy-1-[4-(2-methoxypyridin-3-yl)phenyl]-N,4-dimethyl-4,5-dihydro-3H-2,3-benzodiazepine-3-carboxamide], the IC50 was determined as 750 nM in the assay with MOLM-13 cells and 50 nM on BRD4 (BD1).

For `CNC(=O)N1N=C(c2ccc(-c3cccc(C(N)=O)c3)cc2)c2cc(OC)c(OC)cc2CC1C` (racemic) [Example 77, (±)-1-(3′-carbamoylbiphenyl-4-yl)-7,8-dimethoxy-N,4-dimethyl-4,5-dihydro-3H-2,3-benzodiazepine-3-carboxamide], the IC50 in the assay with MOLM-13 cells turned out to be 490 nM; on BRD4 (BD1), 40 nM.

With `CNC(=O)N1N=C(c2ccc(-c3ccc(C(=O)N4CCCC4)cc3)cc2)c2cc(OC)c(OC)cc2CC1C` (racemic) [Example 78, (±)-7,8-dimethoxy-N,4-dimethyl-1-[4′-(pyrrolidin-1-ylcarbonyl)biphenyl-4-yl]-4,5-dihydro-3H-2,3-benzodiazepine-3-carboxamide], the IC50 was 370 nM in the assay with MOLM-13 cells and 40 nM on BRD4 (BD1).

Regarding `CNC(=O)N1N=C(c2ccc(-c3ccc(C(=O)N4CCOCC4)cc3)cc2)c2cc(OC)c(OC)cc2CC1C` (racemic) [Example 79, (±)-7,8-dimethoxy-N,4-dimethyl-1-[4′-(morpholin-4-ylcarbonyl)biphenyl-4-yl]-4,5-dihydro-3H-2,3-benzodiazepine-3-carboxamide], the IC50 was determined as 460 nM with MOLM-13 cells and 50 nM on BRD4 (BD1).

Turning to `CNC(=O)N1N=C(c2ccc(-c3cncc(OC)c3)cc2)c2cc(OC)c(OC)cc2CC1C` (racemic) [Example 80, (±)-7,8-dimethoxy-1-[4-(5-methoxypyridin-3-yl)phenyl]-N,4-dimethyl-4,5-dihydro-3H-2,3-benzodiazepine-3-carboxamide], the results for the IC50 in the assay on MOLM-13 cells and on BRD4 (BD1) were 560 nM and 50 nM, respectively.

Turning to `CNC(=O)N1N=C(c2ccc(-c3cncc(C)c3)cc2)c2cc(OC)c(OC)cc2CC1C` (racemic) [Example 81, (±)-7,8-dimethoxy-N,4-dimethyl-1-[4-(5-methylpyridin-3-yl)phenyl]-4,5-dihydro-3H-2,3-benzodiazepine-3-carboxamide], the values for the IC50 in the assay on MOLM-13 cells and at BRD4 (BD1) were 300 nM and 50 nM, respectively.

Regarding `CNC(=O)N1N=C(c2ccc(-c3cnccc3C)cc2)c2cc(OC)c(OC)cc2CC1C` (racemic) [Example 82, (±)-7,8-dimethoxy-N,4-dimethyl-1-[4-(4-methylpyridin-3-yl)phenyl]-4,5-dihydro-3H-2,3-benzodiazepine-3-carboxamide], the figures for the IC50 in the assay with MOLM-13 cells and on BRD4 (BD1) were 550 nM and 80 nM, respectively.

As for `CNC(=O)N1N=C(c2ccc(-c3ccc(C(=O)NC4CC4)cc3)cc2)c2cc(OC)c(OC)cc2CC1C` (racemic) [Example 83, (±)-1-[4′-(cyclopropylcarbamoyl)biphenyl-4-yl]-7,8-dimethoxy-N,4-dimethyl-4,5-dihydro-3H-2,3-benzodiazepine-3-carboxamide], the IC50 in the assay with MOLM-13 cells was found to be 450 nM; on BRD4 (BD1), 30 nM.

`CNC(=O)N1N=C(c2ccc(-c3ccncc3F)cc2)c2cc(OC)c(OC)cc2CC1C` (racemic) [Example 84, (±)-1-[4-(3-fluoropyridin-4-yl)phenyl]-7,8-dimethoxy-N,4-dimethyl-4,5-dihydro-3H-2,3-benzodiazepine-3-carboxamide]: the IC50 in the assay on MOLM-13 cells was found to be 340 nM; on BRD4 (BD1) it was 60 nM.

For `CNC(=O)N1N=C(c2ccc(-c3cccc(C(F)(F)F)c3)cc2)c2cc(OC)c(OC)cc2CC1C` (racemic) [Example 85, (±)-7,8-dimethoxy-N,4-dimethyl-1-[3′-(trifluoromethyl)biphenyl-4-yl]-4,5-dihydro-3H-2,3-benzodiazepine-3-carboxamide], the IC50 with MOLM-13 cells was found to be 1080 nM; on BRD4 (BD1) it was 290 nM.

As for `CNC(=O)N1N=C(c2ccc(-c3ccc(C(F)(F)F)cc3)cc2)c2cc(OC)c(OC)cc2CC1C` (racemic) [Example 86, (±)-7,8-dimethoxy-N,4-dimethyl-1-[4′-(trifluoromethyl)biphenyl-4-yl]-4,5-dihydro-3H-2,3-benzodiazepine-3-carboxamide], the values for the IC50 in the assay with MOLM-13 cells and at BRD4 (BD1) were 1430 nM and 390 nM, respectively.
